Reference: patent US20250026745A1 (Bluejay Therapeutics, Inc., priority 2023, published 2025)

Biological target: recombinant 17β-HSD13 protein (Homo sapiens (Human), UniProt Q7Z5P4)
Experiment: 17β-HSD13 biochemical assay (NAD+/NADH Glo chemiluminescence)
Conditions: 17β-HSD13 50 nM, NAD+ 10 mM, β-estradiol 20 μM, 2 hours room temperature
Procedure: 17β-HSD13 biochemical assays are generically described in patents WO 2022/020730, WO 2021/003295, and WO 2023/023310. More specifically, recombinant 17β-HSD13 protein was assayed in a buffer containing 200 mM Tris pH 7.5, 0.01% Triton X-100, and 0.02% BSA into a 384-well assay plate. Compounds were incubated with 17β-HSD13 (final 50 nM) and NAD+ (final 10 mM) at room temperature for 1 h prior to substrate addition. The assay reaction was then initiated by addition of β-estradiol (final 20 μM), and the reaction mixture was incubated for 2 hours at room temperature. Product formation was detected with chemiluminescence by adding equal volume of NAD+/NADH Glo reagent (Promega, #G9062) and read on a PHERAstar microplate reader (BMG LABTECH). IC50 values were determined with GraphPad Prism®, where log-transformed concentration values and the inhibition data were fitted to a four-parameter logistic equation. Y=Bottom+(Top−Bottom)/(1+10^((Log IC50−X)*HillSlope)). The original, % control, or % inhibition data are represented by Y along with their minimal (Bottom) and maximal (Top) values. The inhibitor concentration is represented by X, IC50 is the concentration at 50% maximal value, and Hill Slope is the slope factor.

Chain of recombinant 17β-HSD13 protein (Q7Z5P4 20-300): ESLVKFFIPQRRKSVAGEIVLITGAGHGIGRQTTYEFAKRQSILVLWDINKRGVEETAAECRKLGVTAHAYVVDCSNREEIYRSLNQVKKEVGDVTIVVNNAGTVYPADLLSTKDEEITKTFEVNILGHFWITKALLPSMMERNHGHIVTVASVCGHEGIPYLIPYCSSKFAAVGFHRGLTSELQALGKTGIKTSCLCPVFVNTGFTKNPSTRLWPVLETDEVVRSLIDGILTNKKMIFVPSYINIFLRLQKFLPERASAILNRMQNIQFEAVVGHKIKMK

Row | IC50 | SMILES
1 | 4.07 nM | CC(C)(C)N1C(=O)N(Cc2nnc(-c3ccc(F)c(O)c3F)s2)C2(CC2)C1=O [Compound I-84, 6-(tert-butyl)-4-((5-(2,4-difluoro-3-hydroxyphenyl)-1,3,4-thiadiazol-2-yl)methyl)-4,6-diazaspiro[2.4]heptane-5,7-dione]
2 | 146 nM | O=C1N(CC2(C(F)(F)F)CC2)C(=O)C2(CC2)N1Cc1nnc(-c2ccc(Cl)c(O)c2F)s1 [Compound I-25, 4-((5-(4-chloro-2-fluoro-3-hydroxyphenyl)-1,3,4-thiadiazol-2-yl)methyl)-6-((1-(trifluoromethyl)cyclopropyl)methyl)-4,6-diazaspiro[2.4]heptane-5,7-dione]
3 | 426 nM | C[C@@H](COCC(=O)O)N1C(=O)N(Cc2nnc(-c3ccc(F)c(O)c3F)s2)C2(CC2)C1=O [Compound I-49]
4 | 71.4 nM | O=C1N(CC(F)(F)F)C(=O)C2(CC2)N1Cc1nnc(-c2ccc(Cl)c(O)c2F)s1 [Compound I-24, 4-((5-(4-chloro-2-fluoro-3-hydroxyphenyl)-1,3,4-thiadiazol-2-yl)methyl)-6-(2,2,2-trifluoroethyl)-4,6-diazaspiro[2.4]heptane-5,7-dione]
5 | 1360 nM | CCN1C(=O)N(Cc2nnc(-c3ccc(F)c(O)n3)s2)C2(CC2)C1=O [Compound I-75, 6-ethyl-4-((5-(5-fluoro-6-hydroxypyridin-2-yl)-1,3,4-thiadiazol-2-yl)methyl)-4,6-diazaspiro[2.4]heptane-5,7-dione]
6 | 78.8 nM | CCN1C(=O)N(Cc2nnc(-c3ccc(Cl)c(O)c3F)s2)C2(CC2)C1=O [Compound I-23, 4-[[5-(4-chloro-2-fluoro-3-hydroxy-phenyl)-1,3,4-thiadiazol-2-yl]methyl]-6-ethyl-4,6-diazaspiro[2.4]heptane-5,7-dione]
7 | 602 nM | CC(C)(C)N1C(=O)N(Cc2nnc(-c3ccc(F)c(O)n3)s2)C2(CC2)C1=O [Compound I-81, 6-(tert-butyl)-4-((5-(5-fluoro-6-hydroxypyridin-2-yl)-1,3,4-thiadiazol-2-yl)methyl)-4,6-diazaspiro[2.4]heptane-5,7-dione]
8 | 14.3 nM | O=C1N(CC(F)F)C(=O)C2(CC2)N1Cc1nnc(-c2ccc(F)c(O)c2F)s1 [Compound I-92, 4-((5-(2,4-difluoro-3-hydroxyphenyl)-1,3,4-thiadiazol-2-yl)methyl)-6-(2,2-difluoroethyl)-4,6-diazaspiro[2.4]heptane-5,7-dione]
9 | 76.8 nM | C[C@@H](c1ccccc1)N1C(=O)N(Cc2nnc(-c3ccc(F)c(O)n3)s2)C2(CC2)C1=O [Compound I-80, (S)-4-((5-(5-fluoro-6-hydroxypyridin-2-yl)-1,3,4-thiadiazol-2-yl)methyl)-6-(1-phenylethyl)-4,6-diazaspiro[2.4]heptane-5,7-dione]
10 | 75.4 nM | CNC(=O)c1ccc(CN2C(=O)N(Cc3nnc(-c4ccc(F)c(O)c4F)s3)C3(CC3)C2=O)cc1 [Compound I-93, 4-((4-((5-(2,4-difluoro-3-hydroxyphenyl)-1,3,4-thiadiazol-2-yl)methyl)-5,7-dioxo-4,6-diazaspiro[2.4]heptan-6-yl)methyl)-N-methylbenzamide]
11 | 90.8 nM | CCN1C(=O)N(Cc2nnc(-c3ccc(F)c(O)c3F)s2)C(C)(C)C1=O [Compound I-8, 1-((5-(2,4-difluoro-3-hydroxyphenyl)-1,3,4-thiadiazol-2-yl)methyl)-3-ethyl-5,5-dimethylimidazolidine-2,4-dione]
12 | 13.2 nM | O=C1N(c2ccccc2)C(=O)C2(CC2)N1Cc1nnc(-c2ccc(F)c(O)c2F)s1 [Compound I-85, 4-((5-(2,4-difluoro-3-hydroxyphenyl)-1,3,4-thiadiazol-2-yl)methyl)-6-phenyl-4,6-diazaspiro[2.4]heptane-5,7-dione]
13 | 18 nM | O=C1N(Cc2ccccc2)C(=O)C2(CC2)N1Cc1nnc(-c2cc(C3CC3)c(F)c(O)c2F)s1 [Compound I-63, 6-benzyl-4-((5-(5-cyclopropyl-2,4-difluoro-3-hydroxyphenyl)-1,3,4-thiadiazol-2-yl)methyl)-4,6-diazaspiro[2.4]heptane-5,7-dione]
14 | 355 nM | O=C1NC(=O)C2(CC2)N1Cc1nnc(-c2ccc(F)c(O)c2F)s1 [Compound I-27, 4-((5-(2,4-difluoro-3-hydroxyphenyl)-1,3,4-thiadiazol-2-yl)methyl)-4,6-diazaspiro[2.4]heptane-5,7-dione]
15 | 15.6 nM | O=C1N(C(c2ccc(F)cc2F)C(F)(F)F)C(=O)C2(CC2)N1Cc1nnc(-c2ccc(F)c(O)n2)s1 (stereo not drawn) [Compound I-89, 6-(1-(2,4-difluorophenyl)-2,2,2-trifluoroethyl)-4-((5-(5-fluoro-6-hydroxypyridin-2-yl)-1,3,4-thiadiazol-2-yl)methyl)-4,6-diazaspiro[2.4]heptane-5,7-dione]
16 | 62 nM | O=C1N(C(c2ccccc2)c2ccccc2)C(=O)C2(CC2)N1Cc1nnc(-c2ccc(F)c(O)c2F)s1 [Compound I-95, 6-benzhydryl-4-((5-(2,4-difluoro-3-hydroxyphenyl)-1,3,4-thiadiazol-2-yl)methyl)-4,6-diazaspiro[2.4]heptane-5,7-dione]
17 | 156 nM | CCN1C(=O)N(Cc2nnc(-c3cnc(F)c(O)c3)s2)C2(CC2)C1=O [Compound I-2, 6-ethyl-4-((5-(6-fluoro-5-hydroxypyridin-3-yl)-1,3,4-thiadiazol-2-yl)methyl)-4,6-diazaspiro[2.4]heptane-5,7-dione]
18 | 11.3 nM | O=C1N(Cc2nnc(-c3ccc(F)c(O)c3F)s2)C2(CC2)C(=O)N1C1(C(F)(F)F)CC1 [Compound I-87, 4-((5-(2,4-difluoro-3-hydroxyphenyl)-1,3,4-thiadiazol-2-yl)methyl)-6-(1-(trifluoromethyl)cyclopropyl)-4,6-diazaspiro[2.4]heptane-5,7-dione]
19 | 38.5 nM | O=C1N(Cc2ccccc2)C(=O)C2(CC2)N1Cc1nnc(-c2ccc(Cl)c(O)c2Cl)s1 [Compound I-36, 6-benzyl-4-((5-(2,4-dichloro-3-hydroxyphenyl)-1,3,4-thiadiazol-2-yl)methyl)-4,6-diazaspiro[2.4]heptane-5,7-dione]
20 | 1390 nM | CC(C)N1C(=O)N(Cc2nnc(-c3ccc(F)c(O)n3)s2)C2(CC2)C1=O [Compound I-76, 4-((5-(5-fluoro-6-hydroxypyridin-2-yl)-1,3,4-thiadiazol-2-yl)methyl)-6-isopropyl-4,6-diazaspiro[2.4]heptane-5,7-dione]
21 | 147 nM | O=C1N(Cc2ccccc2)C(=O)C2(CC2)N1Cc1nnc(-c2ccc(F)c(O)n2)s1 [Compound I-74, 6-benzyl-4-((5-(5-fluoro-6-hydroxypyridin-2-yl)-1,3,4-thiadiazol-2-yl)methyl)-4,6-diazaspiro[2.4]heptane-5,7-dione]
22 | 8.11 nM | CCCCN1C(=O)N(Cc2nnc(-c3ccc(F)c(O)c3F)s2)C2(CC2)C1=O [Compound I-28, 6-butyl-4-((5-(2,4-difluoro-3-hydroxyphenyl)-1,3,4-thiadiazol-2-yl)methyl)-4,6-diazaspiro[2.4]heptane-5,7-dione]
23 | 161 nM | O=C1N(Cc2ccccc2)C(=O)C2(CC2)N1Cc1nnc(-c2nc(C(F)(F)F)c(F)c(O)c2F)s1 [Compound I-59, 6-benzyl-4-((5-(3,5-difluoro-4-hydroxy-6-(trifluoromethyl)pyridin-2-yl)-1,3,4-thiadiazol-2-yl)methyl)-4,6-diazaspiro[2.4]heptane-5,7-dione]
24 | 56.7 nM | CCN1C(=O)N(Cc2nnc(-c3ccc(F)c(O)c3F)s2)C2(CCC2)C1=O [Compound I-1, 5-((5-(2,4-difluoro-3-hydroxyphenyl)-1,3,4-thiadiazol-2-yl)methyl)-7-ethyl-5,7-diazaspiro[3.4]octane-6,8-dione]
25 | 13.8 ± 2.2 nM | CCN1C(=O)N(Cc2nnc(-c3cc(C(F)(F)F)cc(O)c3Cl)s2)C2(CC2)C1=O [Compound I-13, 4-((5-(2-chloro-3-hydroxy-5-(trifluoromethyl)phenyl)-1,3,4-thiadiazol-2-yl)methyl)-6-ethyl-4,6-diazaspiro[2.4]heptane-5,7-dione]
26 | 106 nM | O=C1N(CC(F)(F)F)C(=O)C2(CC2)N1Cc1nnc(-c2ccc(Cl)c(O)c2Cl)s1 [Compound I-17, 4-((5-(2,4-dichloro-3-hydroxyphenyl)-1,3,4-thiadiazol-2-yl)methyl)-6-(2,2,2-trifluoroethyl)-4,6-diazaspiro[2.4]heptane-5,7-dione]
27 | 8.43 nM | O=C1N(C(c2ccc(F)cc2F)C(F)(F)F)C(=O)C2(CC2)N1Cc1nnc(-c2ccc(F)c(O)c2Cl)s1 (single isomer, unassigned) [Compound I-54B]
28 | 18.5 nM | O=C1N(C2CC2)C(=O)C2(CC2)N1Cc1nnc(-c2ccc(F)c(O)c2F)s1 [Compound I-43, 6-cyclopropyl-4-((5-(2,4-difluoro-3-hydroxyphenyl)-1,3,4-thiadiazol-2-yl)methyl)-4,6-diazaspiro[2.4]heptane-5,7-dione]
29 | 1060 nM | C[C@H](COCC(=O)O)N1C(=O)N(Cc2nnc(-c3ccc(F)c(O)c3F)s2)C2(CC2)C1=O [Compound I-48]
30 | 32.7 nM | O=C1N(CCc2ccccc2)C(=O)C2(CC2)N1Cc1nnc(-c2ccc(F)c(O)c2Cl)s1 [Compound I-37, 4-((5-(2-chloro-4-fluoro-3-hydroxyphenyl)-1,3,4-thiadiazol-2-yl)methyl)-6-phenethyl-4,6-diazaspiro[2.4]heptane-5,7-dione]
